Measurements reported in patent US20240376111A1, “COMPOSITIONS AND METHODS OF USING THE SAME FOR TREATMENT OF NEURODEGENERATIVE AND MITOCHONDRIAL DISEASE” (Mitokinin, Inc., priority 2021, published 2024).

What was measured:
SKOV3 cells = assay: In vitro mitosafety (glucose/galactose) assay; settings: highest mito-safe dose = highest concentration at which gal/glc>0.80 (IC20) in SKOV3 cells, divided by mt-Keima EC50
Procedure: Briefly, SKOV3 cells (ATCC HTB-77) were plated in DMEM (Corning 10-013-CV) medium containing 25 mM glucose or DMEM with no glucose (Gibco 11966-025) supplemented with 10 mM galactose at 9,000 cells/well in 96 well plates (Corning costar 3610). 24 hrs later, compounds, in DMSO, were added at various concentrations to a final 0.1% DMSO for all wells. […] After a 15 minute incubation cellular ATP levels were read out using a Promega GloMax® DiscoverMicroplate Reader.
The ratio of relative CellTiter-Glo values from cells grown in galactose to cells grown in glucose was determined (gal/glc ratio). The gal/glc ratio vs concentration is then graphed, and non-linear regression is used to find the highest concentration of MTK compound at which gal/glc>0.80 (the “highest mito-safe dose”, or IC20).

[1] = system: HeLa cells expressing mt-Keima and YFP-Parkin (HeLa MKYP); assay: Human mt-Keima mitophagy assay; type: cell-based; settings: Homo sapiens; HeLa MKYP cells; 16 hrs with compound, then 1 uM FCCP/oligomycin for 6 hours; FACS; read-out: EC50 in HeLa mt-Keima Mitophagy Assay
Procedure: Briefly, HeLa cells expressing mt-Keima and YFP-Parkin (HeLa MKYP) were plated at 10,000 cells/well in 96 well plates along with compounds at various concentrations. Following 16 hrs of incubation, cells were treated with 1 uM FCCP/oligomycin for 6 hours, then analyzed via FACS for the presence of mitochondria in lysosomes (as determined by an emissions spectrum shift from the pH-sensitive mt-Keima tag).

CC(C)(C#N)CC[C@@H]1COc2ccccc2[C@H]1Nc1ncnc2[nH]c(C3CC3)cc12 (relative stereo) [EP-0042291, 4-[trans-4-[(6-cyclopropyl-7H-pyrrolo[2,3-d]pyrimidin-4-yl)amino]chroman-3-yl]-2,2-dimethyl-butanenitrile]
Mito-Safety Index (highest mito-safe dose/mt-Keima EC50) (SKOV3 cells): 64.67 | EC50 [1]: 78 nM

FC(F)(F)c1cc2c(N[C@H]3CC4(CCCC4)Oc4ccccc43)ncnc2[nH]1 (single isomer, unassigned) [EP-0041356, N-spiro[chromane-2,1′-cyclopentane]-4-yl-6-(trifluoromethyl)-7H-pyrrolo[2,3-d]pyrimidin-4-amine]
Mito-Safety Index (highest mito-safe dose/mt-Keima EC50) (SKOV3 cells): 60.24 | EC50 [1]: 414 nM

COCC[C@@H]1COc2ccccc2[C@H]1Nc1ncnc2[nH]c(C(F)(F)F)cc12 (single isomer, unassigned) [EP-0041398, N-[trans-3-(2-methoxyethyl)chroman-4-yl]-6-(trifluoromethyl)-7H-pyrrolo[2,3-d]pyrimidin-4-amine]
Mito-Safety Index (highest mito-safe dose/mt-Keima EC50) (SKOV3 cells): 43.54 | EC50 [1]: 356 nM

COCCCC1COc2ccccc2C1Nc1ncnc2[nH]c(C(F)(F)F)cc12 (single isomer, unassigned) [EP-0041483, N-[3-(3-methoxypropyl)chroman-4-yl]-6-(trifluoromethyl)-7H-pyrrolo[2,3-d]pyrimidin-4-amine]
Mito-Safety Index (highest mito-safe dose/mt-Keima EC50) (SKOV3 cells): 48.05 | EC50 [1]: 70 nM

CC(C)(C#N)CCC1COc2ccccc2C1Nc1ncnc2[nH]c(C3CC3)cc12 (single isomer, unassigned) [EP-0042850, 4-[trans-4-[(6-cyclopropyl-7H-pyrrolo[2,3-d]pyrimidin-4-yl)amino]chroman-3-yl]-2,2-dimethyl-butanenitrile]
Mito-Safety Index (highest mito-safe dose/mt-Keima EC50) (SKOV3 cells): 70.99 | EC50 [1]: 90 nM

COC[C@]1(C)C[C@@H](Nc2ncnc3[nH]c(C(F)(F)F)cc23)c2ccccc2O1 (single isomer, unassigned) [EP-0043980]
Mito-Safety Index (highest mito-safe dose/mt-Keima EC50) (SKOV3 cells): 73.0 | EC50 [1]: 100 nM

CC(C)(C#N)CO[C@@H]1COc2ccccc2[C@H]1Nc1ncnc2[nH]c(C3CC3)cc12 (stereo in doubt) [EP-0042976, 3-[(3S,4R)-4-[(6-cyclopropyl-7H-pyrrolo[2,3-d]pyrimidin-4-yl)amino]chroman-3-yl]oxy-2,2-dimethyl-propanenitrile]
Mito-Safety Index (highest mito-safe dose/mt-Keima EC50) (SKOV3 cells): 302.16 | EC50 [1]: 53 nM

FC(F)(F)c1cc2c(NC3CC4(CCCC4)Oc4ccccc43)ncnc2[nH]1 (stereo not drawn) [EP-0041220]
Mito-Safety Index (highest mito-safe dose/mt-Keima EC50) (SKOV3 cells): 41.11 | EC50 [1]: 608 nM

COCC[C@H]1COc2ccccc2[C@@H]1Nc1ncnc2[nH]c(C(F)(F)F)cc12 [EP-0041252]
Mito-Safety Index (highest mito-safe dose/mt-Keima EC50) (SKOV3 cells): 39.13 | EC50 [1]: 634 nM

COCCO[C@H]1COc2cc(F)ccc2[C@@H]1Nc1ncnc2[nH]c(C3CC3)cc12 [EP-0042287, 6-cyclopropyl-N-[(3R,4S)-7-fluoro-3-(2-methoxyethoxy)chroman-4-yl]-7H-pyrrolo[2,3-d]pyrimidin-4-amine]
Mito-Safety Index (highest mito-safe dose/mt-Keima EC50) (SKOV3 cells): 38.56 | EC50 [1]: 180 nM

COCCO[C@H]1COc2cc(F)ccc2[C@@H]1Nc1ncnc2[nH]c(C(F)(F)F)cc12 [EP-0042288, N-[(3R,4S)-7-fluoro-3-(2-methoxyethoxy)chroman-4-yl]-6-(trifluoromethyl)-7H-pyrrolo[2,3-d]pyrimidin-4-amine]
Mito-Safety Index (highest mito-safe dose/mt-Keima EC50) (SKOV3 cells): 40.57 | EC50 [1]: 397 nM

COCCCO[C@H]1COc2ccccc2[C@@H]1Nc1ncnc2[nH]c(C3CC3)cc12 [EP-0042529, 4,6-cyclopropyl-N-[(3R,4S)-3-(3-methoxypropoxy)chroman-4-yl]-7H-pyrrolo[2,3-d]pyrimidin-4-amine]
Mito-Safety Index (highest mito-safe dose/mt-Keima EC50) (SKOV3 cells): 80.20 | EC50 [1]: 95 nM
